Results: patent EP1096933B1, “USE OF AN INHIBITOR OF CYTOCHROME P450 OPTIONALLY COMBINED WITH AN ANTIFUNGAL AGENT FOR TREATING MYCOSES” (priority 1998, dated 2000)
Where two headings read alike, the source gives them in different places.

Legend:
Test in all cases: growth of strains streaked on Sabouraud agar containing the products
Format in all cases: cell-based
Epidermophyton floccosum = conditions: Epid.Flocosum; for activity at 10 µg/mL: read-out: % DE CROISSANCE; for inhibition at 2 µg/mL / inhibition at 10 µg/mL / inhibition at 20 µg/mL / inhibition at 50 µg/mL: read-out: inhibition de la croissance
Procedure: (§1) Ces molécules ont été incorporées dans un milieu gélosé dit de Sabouraud (peptone 10g/l, glucose 10 g/l, gomme agar 15 g/l).
(§2) Des souches de diverses espèces de champignons ont été ensemencées par stries par la méthode de Stires.
(§3) Le pourcentage de croissance a été mesuré au cours du temps, pour des périodes allant jusqu'à 21 jours, pour certaines des souches testées.
(§4) Les quantités de pipéronyl butoxyde, et de cyclopyroxolamine utilisées sont identiques et sont de 10 ou 20 µg/ml dans le cas de l'association entre ces deux composés.
(§5) Dans le cas de l'association entre le pipéronyl butoxyde et l'éconazole, elles sont respectivement de 10 ou 20 µg/ml de pipéronyl butoxyde et de 1 µg/ml d'éconazole.
(§6) Des souches appartenant aux espèces suivantes ont été testées: Microsporum canis, Trichophyton rubrum, Trichophyton interdigitale, Trichophyton mentagrophytes, Microsporum persicolor, Epidermophyton floccosum, Trichophyton violaceum et Trichophyton soudanense.
(§7) L'activité du pipéronyl butoxyde seul a été testée à diverses concentrations, comme indiqué dans le tableau 1 sur le milieu de Sabouraud, dépourvu de tout autre fongicide.

Microsporum canis = conditions: for activity at 20 µg/mL: read-out: % DE CROISSANCE; for inhibition at 2 µg/mL / inhibition at 10 µg/mL / inhibition at 20 µg/mL / inhibition at 50 µg/mL: Micro. Canis, read-out: inhibition de la croissance
Procedure: as §1, §2, §3, §4, §5, §6, §7

[1] = tested on: Trichophyton interdigitale; conditions: Tric.Interdigitale; for activity at 20 µg/mL: read-out: % DE CROISSANCE; for inhibition at 2 µg/mL / inhibition at 10 µg/mL / inhibition at 20 µg/mL / inhibition at 50 µg/mL: read-out: inhibition de la croissance
Procedure: as §1, §2, §3, §4, §5, §6, §7

Microsporum persicolor = conditions: Nannizzia persicolor, Micro.Persicolor; for activity at 10 µg/mL: 10µg/ml each product, read-out: % DE CROISSANCE; for inhibition at 2 µg/mL / inhibition at 10 µg/mL / inhibition at 20 µg/mL / inhibition at 50 µg/mL: read-out: inhibition de la croissance
Procedure: as §1, §2, §3, §4, §5, §6, §7

[2] = tested on: Trichophyton mentagrophytes; conditions: Tric.Mentagophytes; for activity at 20 µg/mL: read-out: % DE CROISSANCE; for inhibition at 2 µg/mL / inhibition at 10 µg/mL / inhibition at 20 µg/mL / inhibition at 50 µg/mL: read-out: inhibition de la croissance
Procedure: as §1, §2, §3, §4, §5, §6, §7

Trichophyton rubrum = conditions: Tric.Rubrum; for activity at 20 µg/mL: read-out: % DE CROISSANCE; for inhibition at 2 µg/mL / inhibition at 10 µg/mL / inhibition at 20 µg/mL / inhibition at 50 µg/mL: read-out: inhibition de la croissance
Procedure: as §1, §2, §3, §4, §5, §6, §7

Trichophyton soudanense = conditions: Tric.Soudanese; for activity at 10 µg/mL: read-out: % DE CROISSANCE; for inhibition at 2 µg/mL / inhibition at 10 µg/mL / inhibition at 20 µg/mL / inhibition at 50 µg/mL: read-out: inhibition de la croissance
Procedure: as §1, §2, §3, §4, §5, §6, §7

[3] = 144 h, J6, 10µg/ml each product
[4] = 240 h, J10, 10µg/ml each product
[5] = 336 h, J14, 10µg/ml each product
[6] = 144 h, J6, 20µg/ml each product
[7] = 240 h, J10, 20µg/ml each product
[8] = 336 h, J14, 20µg/ml each product

CCCCOCCOCCOCc1cc2c(cc1CCC)OCO2 [Piperonyl., pipéronyl butoxyde]
activity at 10 µg/mL (Epidermophyton floccosum; 0 h, J0, 10µg/ml each product): 0%
activity at 10 µg/mL (Epidermophyton floccosum; 96 h, J4, 10µg/ml each product): 0%
activity at 10 µg/mL (Epidermophyton floccosum; [3]): 10%
activity at 10 µg/mL (Epidermophyton floccosum; [4]): 45%
activity at 10 µg/mL (Epidermophyton floccosum; [5]): 70%
inhibition at 2 µg/mL (Epidermophyton floccosum; J+4, 2 µg/ml): 15%
inhibition at 10 µg/mL (Epidermophyton floccosum; J+4, 10 µg/ml): 0%
inhibition at 20 µg/mL (Epidermophyton floccosum; J+4, 20 µg/ml): 0%
inhibition at 50 µg/mL (Epidermophyton floccosum; J+4, 50 µg/ml): 0%
inhibition at 2 µg/mL (Epidermophyton floccosum; J+10, 2 µg/ml): 90%
inhibition at 10 µg/mL (Epidermophyton floccosum; J+10, 10 µg/ml): 45%
inhibition at 20 µg/mL (Epidermophyton floccosum; J+10, 20 µg/ml): 25%
inhibition at 50 µg/mL (Epidermophyton floccosum; J+10, 50 µg/ml): 0%
inhibition at 2 µg/mL (Epidermophyton floccosum; J+14, 2 µg/ml): 100%
inhibition at 10 µg/mL (Epidermophyton floccosum; J+14, 10 µg/ml): 70%
inhibition at 20 µg/mL (Epidermophyton floccosum; J+14, 20 µg/ml): 30%
inhibition at 50 µg/mL (Epidermophyton floccosum; J+14, 50 µg/ml): 0%
activity at 20 µg/mL (Microsporum canis; 0 h): 0%
activity at 20 µg/mL (Microsporum canis; 96 h): 0%
activity at 20 µg/mL (Microsporum canis; 144 h): 5%
activity at 20 µg/mL (Microsporum canis; 240 h): 45%
activity at 20 µg/mL (Microsporum canis; 336 h): 60%
inhibition at 2 µg/mL (Microsporum canis; J+4, 2 µg/ml): 20%
inhibition at 10 µg/mL (Microsporum canis; J+4, 10 µg/ml): 15%
inhibition at 20 µg/mL (Microsporum canis; J+4, 20 µg/ml): 0%
inhibition at 50 µg/mL (Microsporum canis; J+4, 50 µg/ml): 0%
inhibition at 2 µg/mL (Microsporum canis; J+10, 2 µg/ml): 80%
inhibition at 10 µg/mL (Microsporum canis; J+10, 10 µg/ml): 60%
inhibition at 20 µg/mL (Microsporum canis; J+10, 20 µg/ml): 45%
inhibition at 50 µg/mL (Microsporum canis; J+10, 50 µg/ml): 0%
inhibition at 2 µg/mL (Microsporum canis; J+14, 2 µg/ml): 100%
inhibition at 10 µg/mL (Microsporum canis; J+14, 10 µg/ml): 80%
inhibition at 20 µg/mL (Microsporum canis; J+14, 20 µg/ml): 60%
inhibition at 50 µg/mL (Microsporum canis; J+14, 50 µg/ml): 0%
activity at 20 µg/mL ([1]; 0 h, J0, 20µg/ml each product): 0%
activity at 20 µg/mL ([1]; 96 h, J4, 20µg/ml each product): 5%
activity at 20 µg/mL [1, 6]: 25%
activity at 20 µg/mL [1, 7]: 60%
activity at 20 µg/mL [1, 8]: 70%
inhibition at 2 µg/mL ([1]; J+4, 2 µg/ml): 30%
inhibition at 10 µg/mL ([1]; J+4, 10 µg/ml): 15%
inhibition at 20 µg/mL ([1]; J+4, 20 µg/ml): 5%
inhibition at 50 µg/mL ([1]; J+4, 50 µg/ml): 0%
inhibition at 2 µg/mL ([1]; J+10, 2 µg/ml): 80%
inhibition at 10 µg/mL ([1]; J+10, 10 µg/ml): 70%
inhibition at 20 µg/mL ([1]; J+10, 20 µg/ml): 60%
inhibition at 50 µg/mL ([1]; J+10, 50 µg/ml): 0%
inhibition at 2 µg/mL ([1]; J+14, 2 µg/ml): 100%
inhibition at 10 µg/mL ([1]; J+14, 10 µg/ml): 80%
inhibition at 20 µg/mL ([1]; J+14, 20 µg/ml): 70%
inhibition at 50 µg/mL ([1]; J+14, 50 µg/ml): 0%
activity at 10 µg/mL (Microsporum persicolor; 0 h, J0): 0%
activity at 10 µg/mL (Microsporum persicolor; 96 h, J4): 0%
activity at 10 µg/mL (Microsporum persicolor; 144 h, J6): 20%
activity at 10 µg/mL (Microsporum persicolor; 240 h, J10): 40%
activity at 10 µg/mL (Microsporum persicolor; 336 h, J14): 75%
inhibition at 2 µg/mL (Microsporum persicolor; J+4): 20%
inhibition at 10 µg/mL (Microsporum persicolor; J+4): 0%
inhibition at 20 µg/mL (Microsporum persicolor; J+4): 0%
inhibition at 50 µg/mL (Microsporum persicolor; J+4): 0%
inhibition at 2 µg/mL (Microsporum persicolor; J+10): 85%
inhibition at 10 µg/mL (Microsporum persicolor; J+10): 40%
inhibition at 20 µg/mL (Microsporum persicolor; J+10): 20%
inhibition at 50 µg/mL (Microsporum persicolor; J+10): 0%
inhibition at 2 µg/mL (Microsporum persicolor; J+14): 100%
inhibition at 10 µg/mL (Microsporum persicolor; J+14): 75%
inhibition at 20 µg/mL (Microsporum persicolor; J+14): 25%
inhibition at 50 µg/mL (Microsporum persicolor; J+14): 0%
activity at 20 µg/mL ([2]; 0 h, J0, 20µg/ml each product): 0%
activity at 20 µg/mL ([2]; 96 h, J4, 20µg/ml each product): 0%
activity at 20 µg/mL [2, 6]: 25%
activity at 20 µg/mL [2, 7]: 60%
activity at 20 µg/mL [2, 8]: 65%
inhibition at 2 µg/mL ([2]; J+4, 2 µg/ml): 30%
inhibition at 10 µg/mL ([2]; J+4, 10 µg/ml): 10%
inhibition at 20 µg/mL ([2]; J+4, 20 µg/ml): 0%
inhibition at 50 µg/mL ([2]; J+4, 50 µg/ml): 0%
inhibition at 2 µg/mL ([2]; J+10, 2 µg/ml): 80%
inhibition at 10 µg/mL ([2]; J+10, 10 µg/ml): 60%
inhibition at 20 µg/mL ([2]; J+10, 20 µg/ml): 60%
inhibition at 50 µg/mL ([2]; J+10, 50 µg/ml): 0%
inhibition at 2 µg/mL ([2]; J+14, 2 µg/ml): 100%
inhibition at 10 µg/mL ([2]; J+14, 10 µg/ml): 70%
inhibition at 20 µg/mL ([2]; J+14, 20 µg/ml): 65%
inhibition at 50 µg/mL ([2]; J+14, 50 µg/ml): 0%
activity at 20 µg/mL (Trichophyton rubrum; 0 h, J0, 20µg/ml each product): 0%
activity at 20 µg/mL (Trichophyton rubrum; 96 h, J4, 20µg/ml each product): 0%
activity at 20 µg/mL (Trichophyton rubrum; [6]): 20%
activity at 20 µg/mL (Trichophyton rubrum; [7]): 35%
activity at 20 µg/mL (Trichophyton rubrum; [8]): 50%
inhibition at 2 µg/mL (Trichophyton rubrum; J+4, 2 µg/ml): 15%
inhibition at 10 µg/mL (Trichophyton rubrum; J+4, 10 µg/ml): 10%
inhibition at 20 µg/mL (Trichophyton rubrum; J+4, 20 µg/ml): 0%
inhibition at 50 µg/mL (Trichophyton rubrum; J+4, 50 µg/ml): 0%
inhibition at 2 µg/mL (Trichophyton rubrum; J+10, 2 µg/ml): 90%
inhibition at 10 µg/mL (Trichophyton rubrum; J+10, 10 µg/ml): 60%
inhibition at 20 µg/mL (Trichophyton rubrum; J+10, 20 µg/ml): 35%
inhibition at 50 µg/mL (Trichophyton rubrum; J+10, 50 µg/ml): 0%
inhibition at 2 µg/mL (Trichophyton rubrum; J+14, 2 µg/ml): 100%
inhibition at 10 µg/mL (Trichophyton rubrum; J+14, 10 µg/ml): 75%
inhibition at 20 µg/mL (Trichophyton rubrum; J+14, 20 µg/ml): 50%
inhibition at 50 µg/mL (Trichophyton rubrum; J+14, 50 µg/ml): 0%
activity at 10 µg/mL (Trichophyton soudanense; 0 h, J0, 10µg/ml each product): 0%
activity at 10 µg/mL (Trichophyton soudanense; 96 h, J4, 10µg/ml each product): 0%
activity at 10 µg/mL (Trichophyton soudanense; [3]): 10%
activity at 10 µg/mL (Trichophyton soudanense; [4]): 10%
activity at 10 µg/mL (Trichophyton soudanense; [5]): 25%
inhibition at 2 µg/mL (Trichophyton soudanense; J+4, 2 µg/ml): 25%
inhibition at 10 µg/mL (Trichophyton soudanense; J+4, 10 µg/ml): 0%
inhibition at 20 µg/mL (Trichophyton soudanense; J+4, 20 µg/ml): 0%
inhibition at 50 µg/mL (Trichophyton soudanense; J+4, 50 µg/ml): 0%
inhibition at 2 µg/mL (Trichophyton soudanense; J+10, 2 µg/ml): 80%
inhibition at 10 µg/mL (Trichophyton soudanense; J+10, 10 µg/ml): 10%
inhibition at 20 µg/mL (Trichophyton soudanense; J+10, 20 µg/ml): 0%
inhibition at 50 µg/mL (Trichophyton soudanense; J+10, 50 µg/ml): 0%
inhibition at 2 µg/mL (Trichophyton soudanense; J+14, 2 µg/ml): 100%
inhibition at 10 µg/mL (Trichophyton soudanense; J+14, 10 µg/ml): 25%
inhibition at 20 µg/mL (Trichophyton soudanense; J+14, 20 µg/ml): 0%
inhibition at 50 µg/mL (Trichophyton soudanense; J+14, 50 µg/ml): 0%
